In one assay the test system is T47D cells. Description: MTT cell viability, E2-depleted T47D cells. The class given is cell-based, human. To be noted: 10 μM, 24 h, absence of E2. How it is done: (§1) The effects of lignan derivatives were evaluated on human ER+ BC cells.
(§2) Cells were maintained in RPMI (Lonza, Basel, Switzerland) growth media, without phenol red, supplemented with 10% fetal bovine serum (FBS) (Lonza), 2 mM glutamine, 10 mM HEPES, 1 mM sodium pyruvate, 100 UI/mL penicillin and 100 μg/mL streptomycin. Cells were growth in a humidified incubator with 5% CO2 at 37 °C.
(§3) The cells were maintained in standard growth media as detailed above and seeded at exponential growth density (6000 cells per well) in 96-well plates (BD Falcon, France). The cells were then treated with vehicle or tests compounds (from 0.01 μM to 10 μM) for 24–72 h. The mitochondrial metabolization of the tetrazolium salt 3-(4,5-methyltiazol-2yl-)-2,5diphenyl-tetrazolium bromide] (MTT) (Applichen, Darmstadt, Germany) was used as an indicator of cell viability.
(§4) Figure 6 Effects of lignans on ER+ breast cancer cell viability. […] Then, the mitochondrial metabolization of MTT was used as an indicator of cell viability, as described in the Material and Methods. Data are expressed as mean ± SEM for at least three independent experiments, where each concentration is tested in triplicate. * p < 0.05, ** p < 0.01, and *** p < 0.001 versus VEH-treated cells.

Another assay concerns T47D and MCF7 cells. Description: MTT cell viability, E2 non-depleted T47D and MCF7 cells, 72 h. To be noted: 10 μM, maximum reduction. The class given is cell-based, human. How it is done: as §1, §2, §3, §4
Assay [1] has as its system ER-dependent transcriptional activity in T47D-KBluc cells. Nature of the assay: ERE-luciferase reporter in T47D-KBluc cells, agonist assessment (absence of E2). The class given is cell-based, human. The method, then:
Lactols (5) and (6) were tested as a mixture of the two epimers obtained.
Chemical screening was carried out by using T47D-KBluc cells, an ER+ BC cell line that is stably transfected with the pGL2.TATA.Inr.Luc.neo containing three ER-responsive elements (ERE). The T47D-KBluc cells were maintained in standard growth media as detailed above. Dosing media was further modified by reduction of DCC-FBS to 5%. […] Chemical screening was also carried out by using the triple negative BC cell line MDA-kb2 cells that stably expresses pMMTV.neo.luc gene, an AR- and GR-responsive reporter gene. […] The T47D-KBluc cells or the MDA-kb2 cells were seeded at 100,000 cells per well in 24-well plates (Nunclon, Sigma-Aldrich, Darmstadt, Germany ) and allowed to attach overnight. Then, the media was replaced with 1 mL/well of dosing media and test compounds incubated 24 h. Then, the cells were harvested in 100 µL passive lysis buffer (Promega, Madison, WI, USA) per well. The relative light units (RLUs), which correspond to luciferase activity from each sample, were measured by using Luciferase Assay Reagent (Promega) in a Clarity luminescence microplate reader (BIOTEK, Winooski, VT, USA). The RLUs from each sample were normalized by protein concentration and converted to fold induction with respect to vehicle-treated control. […] Then, the percent of efficacy (E) of each tested compound, as compared with Emax, was calculated. […] Data are expressed as mean ± SEM of triplicate independent experiments, where each treatment was assayed in triplicate. […] Duplicate plates were dosed in parallel to control the effects of compounds on cell viability. The protein concentration was measured in cell lysate using colorimetric assay reagent (BioRad, CA, USA).
For orientation: Reporter assays use an easily measured gene product as a stand-in for the process of interest.

For another assay, the target named is T1, rhERα-LBD (Homo sapiens, UniProt P03372).
T1 sequence (P03372 311-547 limits assumed): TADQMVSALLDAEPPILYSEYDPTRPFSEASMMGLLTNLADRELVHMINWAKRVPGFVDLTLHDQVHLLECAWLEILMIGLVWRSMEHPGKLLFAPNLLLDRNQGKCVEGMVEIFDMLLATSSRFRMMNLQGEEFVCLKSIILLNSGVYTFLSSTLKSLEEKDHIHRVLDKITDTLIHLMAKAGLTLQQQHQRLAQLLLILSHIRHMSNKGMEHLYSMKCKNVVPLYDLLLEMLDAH
Nature of the assay: LanthaScreen TR-FRET competitive binding assay. To be noted: 10-point competition curves; Mean ± SE; read-out: IC50 (inhibition of Fluormone tracer binding to rhERα). How it is done: Next, the binding of lignan derivatives to the LBD of rhERα was analyzed by using time-resolved fluorescence resonance energy transfer (TR-FRET) competitive binding assay. […] The LanthaScreen^TM TR-FRET Nuclear Receptor (NR) binding assay (SelectScreen^TM Profiling Service, Life Technologies, Carlsbad, CA, USA) was used for screening of potential binding of lignan derivatives to human ERα [33]. Briefly, the kit uses the recombinant human ERα (rhERα) protein and a tight binding, selective fluorescent ligand, Fluormone^TM tracer. […] The rhERα protein and the tracer form rhERα/tracer complex, resulting in a high FP value. […] Dose-response competition curves were fitted by nonlinear regression analyses in the GraphPad software 8 (GraphPad Software, San Diego, CA, USA) to obtain IC50 values.
Data are expressed as mean ± SEM for from at least three independent experiments, where each concentration is tested in triplicate.

Assay [2] concerns the target T2, ERα from rat uterine cytosol (RUC) (Rattus norvegicus, UniProt P06211).
T2 construct: from tissue
T2 sequence (P06211 1-600): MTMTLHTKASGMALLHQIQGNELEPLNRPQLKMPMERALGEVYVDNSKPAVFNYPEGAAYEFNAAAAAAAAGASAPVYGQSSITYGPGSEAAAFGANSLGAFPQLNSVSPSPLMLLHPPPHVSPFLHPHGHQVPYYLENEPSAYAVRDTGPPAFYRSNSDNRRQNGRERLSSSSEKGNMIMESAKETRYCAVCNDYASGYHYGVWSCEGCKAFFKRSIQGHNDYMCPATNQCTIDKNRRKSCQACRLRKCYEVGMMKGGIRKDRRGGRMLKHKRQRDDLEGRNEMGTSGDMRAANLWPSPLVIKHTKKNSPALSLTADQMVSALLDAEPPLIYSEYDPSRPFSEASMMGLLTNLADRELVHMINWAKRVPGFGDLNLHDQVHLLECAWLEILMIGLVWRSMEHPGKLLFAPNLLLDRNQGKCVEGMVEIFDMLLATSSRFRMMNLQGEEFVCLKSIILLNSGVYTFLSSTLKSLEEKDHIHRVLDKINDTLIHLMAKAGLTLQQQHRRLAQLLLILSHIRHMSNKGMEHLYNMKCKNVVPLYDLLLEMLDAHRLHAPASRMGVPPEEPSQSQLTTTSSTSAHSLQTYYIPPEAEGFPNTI
Description: Rat uterine cytosol competitive radioligand ([3H]E2) binding assay.

With `COc1ccc(C[C@@H](C)[C@H](C)Cc2ccc(O)c(O)c2)cc1OC` [Compound 14, 4-((2R,3R)-4-(3,4-Dimethoxyphenyl)-2,3-dimethylbutyl)benzene-1,2-diol], the “reduction of cell viability” value was “reduced cell viability” in the assay with T47D cells; 33.4% in the assay on T47D and MCF7 cells. For the same molecule, in assay [1], the “E/Emax (%) VEH” value is “weak estrogenic activity”. Besides, the Emax in assay [1] (Homo sapiens, read-out: E/Emax (%) VEH) is 21.7 ± 4.12%. Also, the IC50 came out at 160 ± 110 nM on rhERα-LBD and 3960 ± 980 nM in assay [2].

For orientation: IC50 means the concentration that inhibits the measured activity by half.

These data come from publication PMC9145393, “Design, Semisynthesis, and Estrogenic Activity of Lignan Derivatives from Natural Dibenzylbutyrolactones” (Pharmaceuticals, 2022).
